Literature values in US20240115678A1, “PERSONALIZED […] CANCER THERAPY” (priority 2022, published 2024).

Experiments:
[1] = system: monocytes derived from human peripheral blood
ovarian cancer = details: whole trial
NK cells = details: animal experiments
[2] = system: neuroblastoma, bladder cancer, pancreatic cancer, mesothelioma, hepatoma cells; details: in vitro
[3] = system: battery of tumor cell lines; details: in vitro, combined with AA
[4] = system: rat PAIII androgen-independent syngeneic prostate cancer cell line; details: daily intraperitoneal for 30 days, evaluation at day 40
[5] = system: human xenografted glioma, overian, and neuroblastoma cells; details: immune deficient animals
HUVEC = details: in vitro
vascular cord formation = details: in vivo administration
S-180 sarcoma = details: parenteral administration
[6] = system: hypoxia inducible factor (HIF)-1
[7] = system: T cell, B cell and NK cells; details: high dose
[8] = system: murine TECs and normal ECs; details: with up-regulation of MDR1 mRNA

CC(C)[C@]12O[C@H]1[C@@H]1O[C@]13[C@]1(O[C@H]1C[C@H]1C4=C(CC[C@@]13C)C(=O)OC4)[C@@H]2O [triptolide]
effect on Treg cells (Treg cells): inhibit Treg cells

Nc1ccn([C@@H]2O[C@H](CO)[C@@H](O)C2(F)F)c(=O)n1 [gemcitabine]
effect on Treg cells (Treg cells): inhibit Treg cells

CCOCc1nc2c(N)nc3ccccc3c2n1CC(C)(C)O [R-848]
FcgammaRI, FcgammaRIIa, and the common gamma-subunit [1]: upregulation | inhibitory FcgammaRIIb molecule [1]: profound downregulation | FcgammaR-mediated cytokine production ([1]; 12 hour exposure): increased | antibody-dependent cellular cytotoxicity by monocytes ([1]; 12 hour exposure): increased

bevacizumab plus chemotherapy: Bevacizumab (Avastin), antibody which binds VEGF, given with chemotherapy
median progression free survival (PFS) (ovarian cancer; ovarian cancer patients): 6.8 months | median OS (ovarian cancer): 16.6 months | HR for overall survival (ovarian cancer; versus chemotherapy alone, 95 percent CI: 0.69, 1.14): 0.89

Poly (IC)
effect on Herceptin activity (NK cells): augmentation of Herceptin activity

O=P1(N(CCCl)CCCl)NCCCO1 (stereo not drawn) [cyclophosphamide]
effect on Treg cells (Treg cells): inhibit Treg cells

O=C1O[C@H]([C@@H](O)CO)C(O)=C1O [AA, ascorbic acid]
cytotoxic effects on cancer cells [2]: cytotoxic effects at pharmacologically achievable concentrations | cytotoxicity of Docetaxel, Epirubicin, Irinotecan and 5-FU [3]: Enhancement of cytotoxicity | pulmonary and lymphatic metastasis [4]: reduction in pulmonary and lymphatic metastasis | tumor growth [4]: significant inhibition of tumor growth | inhibition of xenografted cells [5]: successful in vivo inhibition | HUVEC proliferation (HUVEC): inhibits | neovascularization (neovascularization): suppressing neovascularization | vascular cord formation (vascular cord formation): suppressed vascular cord formation | angiogenesis and pro-angiogenic factors bFGF, VEGF, and MMP-2 (S-180 sarcoma): suppression | tumor growth (S-180 sarcoma): reduced tumor growth | activation of HIF-1 [6]: suppresses activation | NK cytotoxic activity [7]: inhibits | IL-2 secretion ([7]; in vitro): inhibits | T cell and B cell proliferative responses ([7]; in vitro): inhibits | T cell activating ability of dendritic cells (dendritic cells): inhibit

arsenic trioxide
effect on Treg cells (Treg cells): inhibit Treg cells

CC(=O)O[C@H]1C(=O)[C@@]2(C)[C@H]([C@H](OC(=O)c3ccccc3)[C@]3(O)C[C@H](OC(=O)[C@H](O)[C@@H](NC(=O)c4ccccc4)c4ccccc4)C(C)=C1C3(C)C)[C@]1(OC(C)=O)CO[C@@H]1C[C@@H]2O [paclitaxel]
resistance of TECs compared with normal ECs [8]: more resistant

COc1cc2nccc(Oc3ccc(NC(=O)Nc4ccc(F)cc4F)c(F)c3)c2cc1OC [Ki8751]
tumor CM-induced MDR1 up-regulation (human microvascular ECs): blocked

B1: IL-12: stimulator of NK cells (protein, UniProt P29459 23-219; P29460 23-328, looked up)
Interleukin-12 subunit alpha: RNLPVATPDPGMFPCLHHSQNLLRAVSNMLQKARQTLEFYPCTSEEIDHEDITKDKTSTVEACLPLELTKNESCLNSRETSFITNGSCLASRKTSFMMALCLSSIYEDLKMYQVEFKTMNAKLLMDPKRQIFLDQNMLAVIDELMQALNFNSETVPQKSSLEEPDFYKTKIKLCILLHAFRIRAVTIDRVMSYLNAS
Interleukin-12 subunit beta: IWELKKDVYVVELDWYPDAPGEMVVLTCDTPEEDGITWTLDQSSEVLGSGKTLTIQVKEFGDAGQYTCHKGGEVLSHSLLLLHKKEDGIWSTDILKDQKEPKNKTFLRCEAKNYSGRFTCWWLTTISTDLTFSVKSSRGSSDPQGVTCGAATLSAERVRGDNKEYEYSVECQEDSACPAAEESLPIEVMVDAVHKLKYENYTSSFFIRDIIKPDPPKNLQLKPLKNSRQVEVSWEYPDTWSTPHSYFSLTFCVQVQGKSKREKKDRVFTDKTSATVICRKNASISVRAQDRYYSSSWSEWASVPCS
effect on Herceptin activity (NK cells): augmentation of Herceptin activity
